# Ends that are not written are not given here.
# Tests used:
# ACE C-domain = target: T1, ACE C-domain (Homo sapiens, UniProt P12821); conditions: lower for C-domain; cited from earlier work
# T1 construct: with a dissociation constant more than 3 orders of magnitude lower for the ACE C-domain than the N-domain
# [1] = cited from earlier work
# cytokine expression = cytokine expression with ACE inhibitor, ACE7 (N-terminus KO) vs wild type (FIG. 11); format: cell-based, mouse; conditions: ACE7 (N-terminus KO) and wild type
# Procedure: (§1) To obtain large numbers of macrophages, N-KO, C-KO and WT mice were injected intraperitoneally with thioglycolate. After four days, cells were collected, washed and counted. Aliquots of 1×10^6 cells were adhered in 24 well plates. After 2 hrs, non-adherent cells were removed and the plates were visually evaluated to verify that wells contained nearly identical numbers of adherent cells. Media containing 1 ug/ml of LPS (a model activator of macrophages) was then added. After 24 hrs, supernatants were collected and the concentrations of TNF-α and IL-12p40 (one of the 2 proteins comprising IL-12) were determined by ELISA (eBioscience). However, there was a marked difference in cytokine expression profile; macrophages derived from N-KO mice producing far more TNF- a and IL-12p40 than either C-KO or WT mice (p values for TNF-α: N-KO vs. C-KO or WT, p<0.001; p values for IL12p40: N-KO vs. C-KO or WT, p<0.02). Further, there was a clear trend of macrophages from C-KO mice producing less cytokines than wild-type cells (TNF- a: C-KO vs. WT, p<0.07; IL12p40: C-KO vs. WT, p<0.02). Thus, in the absence of ACE N-terminal catalytic activity, TNF-α and IL-12 cytokine expression was increased. In the absence of C-terminal catalytic activity, there is a strong reduction of production of these cytokines. […]
# TNF = TNF with AT1R inhibitor, ACE7 (N-terminus KO) vs wild type (FIG. 12); format: cell-based, mouse; conditions: ACE7 (N-terminus KO) and wild type
# Procedure: FIG. 12 depicts, in accordance with an embodiment of the present invention, AT1R inhibitor losartan can lower TNF, but cannot eliminate the difference between ACE7 (N-terminus KO) and wild type.
# as §1, with “increased.” for “increased. In the absence of C-terminal catalytic activity, there is a strong reduction of production of these cytokines.”
# [2] = target: AcSDAcKP (synthetic ACE substrate); experiment: cell-based or functional assay
# [3] = target: Hip-His-Leu (HHL) (synthetic ACE substrate); experiment: cell-based or functional assay
# [4] = test system: 2-kidney, 1-clip hypertensive rats; conditions: osmotic mini-pump; cited from earlier work
# macrophages = conditions: cited from earlier work
# [5] = test system: aldosterone-salt hypertension; conditions: cited from earlier work
# [6] = test system: angiotensin II-induced hypertension; conditions: secondary to angiotensin II-induced hypertension; cited from earlier work
# cardiac fibroblasts = conditions: cited from earlier work
# Smad2 = conditions: cited from earlier work
# T1 sequence (P12821 643-1222 limits assumed): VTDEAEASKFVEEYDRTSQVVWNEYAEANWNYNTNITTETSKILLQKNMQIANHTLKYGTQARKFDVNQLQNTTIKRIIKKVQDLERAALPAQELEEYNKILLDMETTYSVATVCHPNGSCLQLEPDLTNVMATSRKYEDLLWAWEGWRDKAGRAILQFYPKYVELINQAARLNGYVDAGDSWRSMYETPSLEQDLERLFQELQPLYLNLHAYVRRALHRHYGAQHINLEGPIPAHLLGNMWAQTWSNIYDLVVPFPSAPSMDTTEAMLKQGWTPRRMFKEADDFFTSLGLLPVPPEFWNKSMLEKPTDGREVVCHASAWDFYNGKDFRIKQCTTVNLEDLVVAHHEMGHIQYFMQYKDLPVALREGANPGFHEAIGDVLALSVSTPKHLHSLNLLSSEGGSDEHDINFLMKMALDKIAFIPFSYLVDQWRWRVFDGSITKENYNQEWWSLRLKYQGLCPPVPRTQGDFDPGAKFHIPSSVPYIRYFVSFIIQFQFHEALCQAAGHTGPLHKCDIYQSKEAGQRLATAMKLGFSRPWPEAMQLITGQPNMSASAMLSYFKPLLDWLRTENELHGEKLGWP
compound,measurement,setting,value
O=C(NC(Cc1ccccc1)P(=O)(O)C1CCCC1C(=O)NC(Cc1c[nH]c2ccccc12)C(=O)O)OCc1ccccc1 (centres unmarked) [RXPA 380],dissociation constant for the ACE C-domain relative to the N-domain,ACE C-domain,more than 3 orders of magnitude
same,effectiveness in mice,[1]; mice,effective
same,stability in vivo,"[1]; mouse, in vivo",stable
NCCCC[C@H](N[C@@H](CCc1ccccc1)C(=O)O)C(=O)N1CCC[C@H]1C(=O)O [lisinopril],cytokine expression,cytokine expression,can lower cytokine expression
CCCCc1nc(Cl)c(CO)n1Cc1ccc(-c2ccccc2-c2nn[nH]n2)cc1 [losartan],TNF,TNF,can lower TNF
ACE of ACE 7/7 (N-KO) mice: mouse angiotensin converting enzyme with the N-terminal catalytic site inactivated (HEMGH motif converted to KEMGK) (from UniProt P09470 35-1237),catalytic activity of plasma (cleavage efficiency against wild-type mice) (% of wild-type efficiency),[2],3
ACE of ACE 13/13 (C-KO) mice: mouse angiotensin converting enzyme with the C-terminal catalytic site inactivated (histidines of HEMGH mutated to lysines) (from UniProt P09470 35-1237),catalytic activity of plasma (hydrolysis efficiency against wild-type mice) (% of wild-type efficiency),[3],18
"Acetyl-SerAspLysPro (Ac-SDKP) [AcSDKP, tetrapeptide cleaved from thymosin-β4 by prolyl oligopeptidase]",blood pressure,[4],no effect on blood pressure
same,development of fibrosis in the heart,[4],prevented the development of fibrosis in the heart
same,macrophage production of TNF,macrophages,reducing macrophage production of TNF
same,collagen deposition and cell proliferation in the heart and kidney,[5],prevented increased collagen deposition and cell proliferation
same,aortic fibrosis,[6],reduced aortic fibrosis
same,growth of cardiac fibroblasts,cardiac fibroblasts,inhibits the growth of cardiac fibroblasts
same,TGF-β1 stimulated phosphorylation of Smad2,Smad2,inhibits

# From US20120088730A1, “USE OF ANGIOTENSIN CONVERTING ENZYME (ACE) DOMAIN SPECIFIC INHIBITORS TO INHIBIT OR ENHANCE CYTOKINE PRODUCTION AND ALTER IMMUNE RESPONSE” (CEDARS-SINAI MEDICAL CENTER, priority 2009, published 2012)
